Assays:
Set-up in all cases: species or system AML cell lines (8); Primary HTS, single concentration about 10 uM, Cell Titer Glo viability; log10 luminescence, per cent inhibition relative to cycloheximide control
Conditions in all cases: 72 h, relative to cycloheximide control, log10 luminescence; inhibitor
CHRF288-11 = test system: CHRF288-11
CMK = test system: CMK
CMS = test system: CMS
M07e = test system: M07e
ML-2 = test system: ML-2
MOLM-13 = test system: MOLM-13
MV4-11 = test system: MV4-11
U937 = test system: U937

SMILES: O=C1NC(=NCCc2ccc(Br)cc2)S/C1=C\c1ccc2ncccc2c1 [SJ000580974-1]
- CHRF288-11 %inh (CHRF288-11): -1.536%
- CMK %inh (CMK): 0.3303%
- CMS %inh (CMS): -2.579%
- M07e %inh (M07e): -0.6831%
- ML-2 %inh (ML-2): -0.9884%
- MOLM-13 %inh (MOLM-13): 0.9588%
- MV4-11 %inh (MV4-11): 2.317%
- U937 %inh (U937): -2.102%

SMILES: CS(=O)(=O)N1CCC(n2c(=O)c(Oc3ccc(F)cc3F)cc3cnc(NC4CCOCC4)nc32)CC1 [SJ000580975-1]
- CHRF288-11 %inh (CHRF288-11): -0.8918%
- CMK %inh (CMK): 5.472%
- CMS %inh (CMS): -1.205%
- M07e %inh (M07e): 0.9741%
- ML-2 %inh (ML-2): -0.9846%
- MOLM-13 %inh (MOLM-13): 0.4331%
- MV4-11 %inh (MV4-11): 2.449%
- U937 %inh (U937): 0.9443%

SMILES: COc1ccc(C2=C(c3cn(C)c4ccccc34)C(=O)NC2=O)cc1 [SJ000580976-1]
- CHRF288-11 %inh (CHRF288-11): 0.9018%
- CMK %inh (CMK): 12.52%
- CMS %inh (CMS): -2.297%
- M07e %inh (M07e): 2.491%
- ML-2 %inh (ML-2): -0.4189%
- MOLM-13 %inh (MOLM-13): 0.836%
- MV4-11 %inh (MV4-11): 1.945%
- U937 %inh (U937): 2.922%

SMILES: Cn1cc(C2=C(c3cn(-c4ccccc4)c4ccccc34)C(=O)NC2=O)c2ccccc21 [SJ000580977-1]
- CHRF288-11 %inh (CHRF288-11): 2.78%
- CMK %inh (CMK): 6.892%
- CMS %inh (CMS): 0.9336%
- M07e %inh (M07e): -0.4981%
- ML-2 %inh (ML-2): -1.344%
- MOLM-13 %inh (MOLM-13): 2.403%
- MV4-11 %inh (MV4-11): 3.843%
- U937 %inh (U937): 0.1058%

SMILES: Cn1cc(C2=C(c3cn(C)c4ccccc34)C(=O)NC2=O)c2ccccc21 [SJ000580978-1]
- CHRF288-11 %inh (CHRF288-11): -0.8174%
- CMK %inh (CMK): 24.68%
- CMS %inh (CMS): 40.67%
- M07e %inh (M07e): 52.37%
- ML-2 %inh (ML-2): 13.32%
- MOLM-13 %inh (MOLM-13): 3.271%
- MV4-11 %inh (MV4-11): 62.31%
- U937 %inh (U937): 66.13%

SMILES: Cn1cc(C2=C(c3ccccc3C(F)(F)F)C(=O)NC2=O)c2ccccc21 [SJ000580979-1]
- CHRF288-11 %inh (CHRF288-11): 19.74%
- CMK %inh (CMK): 21.16%
- CMS %inh (CMS): 5.043%
- M07e %inh (M07e): -0.07648%
- ML-2 %inh (ML-2): 0.8133%
- MOLM-13 %inh (MOLM-13): 4.778%
- MV4-11 %inh (MV4-11): 10.38%
- U937 %inh (U937): 1.904%

SMILES: CCCn1cc(C2=C(c3cn(C)c4ccccc34)C(=O)NC2=O)c2ccccc21 [SJ000580980-1]
- CHRF288-11 %inh (CHRF288-11): 31.26%
- CMK %inh (CMK): 44.58%
- CMS %inh (CMS): 13.73%
- M07e %inh (M07e): 35.81%
- ML-2 %inh (ML-2): 30.17%
- MOLM-13 %inh (MOLM-13): 64.41%
- MV4-11 %inh (MV4-11): 13.35%
- U937 %inh (U937): 35.21%

SMILES: Cn1cc(C2=C(c3cccc(Cl)c3)C(=O)NC2=O)c2ccccc21 [SJ000580981-1]
- CHRF288-11 %inh (CHRF288-11): 3.619%
- CMK %inh (CMK): -0.373%
- CMS %inh (CMS): -3.182%
- M07e %inh (M07e): 1.057%
- ML-2 %inh (ML-2): -1.322%
- MOLM-13 %inh (MOLM-13): -1.961%
- MV4-11 %inh (MV4-11): -5.929%
- U937 %inh (U937): 1.717%

SMILES: O=C1NC(=NCCc2ccccc2F)S/C1=C\c1ccc2ncccc2c1 [SJ000580983-1]
- CHRF288-11 %inh (CHRF288-11): 13.58%
- CMK %inh (CMK): 41.89%
- CMS %inh (CMS): 2.155%
- M07e %inh (M07e): 0.4729%
- ML-2 %inh (ML-2): 8.671%
- MOLM-13 %inh (MOLM-13): 4.839%
- MV4-11 %inh (MV4-11): -0.6215%
- U937 %inh (U937): 4.047%

SMILES: COc1ccc(O)c(C(=O)c2ccc(C(=O)N[C@@H]3CCCNC[C@H]3NC(=O)c3ccncc3)cc2)c1F [SJ000580985-1]
- CHRF288-11 %inh (CHRF288-11): 19.87%
- CMK %inh (CMK): 12.77%
- CMS %inh (CMS): 1.516%
- M07e %inh (M07e): 4.451%
- ML-2 %inh (ML-2): 46.48%
- MOLM-13 %inh (MOLM-13): 32.45%
- MV4-11 %inh (MV4-11): 52.11%
- U937 %inh (U937): 23.19%

SMILES: Cn1cc(C2=C(Nc3ccccc3)C(=O)NC2=O)c2ccccc21 [SJ000580986-1]
- CHRF288-11 %inh (CHRF288-11): -2.441%
- CMK %inh (CMK): -3.795%
- CMS %inh (CMS): 2.457%
- M07e %inh (M07e): -1.248%
- ML-2 %inh (ML-2): 0.1627%
- MOLM-13 %inh (MOLM-13): 1.455%
- MV4-11 %inh (MV4-11): -0.9881%
- U937 %inh (U937): -0.4269%

SMILES: N#Cc1ccc(C(=O)c2cnn(-c3ccc(F)cc3)c2N)cc1 [SJ000580987-1]
- CHRF288-11 %inh (CHRF288-11): -3.381%
- CMK %inh (CMK): -2.255%
- CMS %inh (CMS): 0.4553%
- M07e %inh (M07e): -1.432%
- ML-2 %inh (ML-2): -0.9573%
- MOLM-13 %inh (MOLM-13): -1.146%
- MV4-11 %inh (MV4-11): -4.232%
- U937 %inh (U937): 0.0125%

SMILES: Cn1c(=O)c(Oc2cccc(F)c2)cc2cnc(NC3CCOCC3)nc21 [SJ000580988-1]
- CHRF288-11 %inh (CHRF288-11): 0.6759%
- CMK %inh (CMK): 1.711%
- CMS %inh (CMS): 1.491%
- M07e %inh (M07e): 0.7165%
- ML-2 %inh (ML-2): -0.3057%
- MOLM-13 %inh (MOLM-13): 93.55%
- MV4-11 %inh (MV4-11): 0.1701%
- U937 %inh (U937): 1.883%

SMILES: CC(=O)N1CCC(Nc2ncc3cc(Oc4ccc(F)cc4F)c(=O)n(C)c3n2)CC1 [SJ000580990-1]
- CHRF288-11 %inh (CHRF288-11): 0.9354%
- CMK %inh (CMK): 3.354%
- CMS %inh (CMS): 0.4119%
- M07e %inh (M07e): 1.958%
- ML-2 %inh (ML-2): -1.665%
- MOLM-13 %inh (MOLM-13): -1.534%
- MV4-11 %inh (MV4-11): 0.8846%
- U937 %inh (U937): 4.841%

SMILES: Fc1ccc(-c2c(-c3ccncc3)[nH]c3nccnc23)cc1 [SJ000580991-1]
- CHRF288-11 %inh (CHRF288-11): 0.1739%
- CMK %inh (CMK): 11.62%
- CMS %inh (CMS): 2.205%
- M07e %inh (M07e): -1.27%
- ML-2 %inh (ML-2): -4.337%
- MOLM-13 %inh (MOLM-13): -0.4618%
- MV4-11 %inh (MV4-11): -5.653%
- U937 %inh (U937): 0.7484%

SMILES: Nc1c(C(=O)c2cccc(CCC3(O)CCCC3)c2)cnn1-c1ccc(F)cc1 [SJ000580994-1]
- CHRF288-11 %inh (CHRF288-11): 5.85%
- CMK %inh (CMK): 2.532%
- CMS %inh (CMS): 0.1004%
- M07e %inh (M07e): 2.495%
- ML-2 %inh (ML-2): -0.2918%
- MOLM-13 %inh (MOLM-13): 0.5318%
- MV4-11 %inh (MV4-11): 2.023%
- U937 %inh (U937): 3.468%

SMILES: Cn1cc(C2=C(c3cn(CCCO)c4ccccc34)C(=O)NC2=O)c2ccccc21 [SJ000580995-1]
- CHRF288-11 %inh (CHRF288-11): 44.69%
- CMK %inh (CMK): 64.37%
- CMS %inh (CMS): 6.597%
- M07e %inh (M07e): 3.572%
- ML-2 %inh (ML-2): -3.665%
- MOLM-13 %inh (MOLM-13): 52.73%
- MV4-11 %inh (MV4-11): 37.67%
- U937 %inh (U937): 2.993%

SMILES: CCCCCNC(=O)[C@@H]1CCCN2C(=O)CC[C@H](NC(=O)[C@H](Cc3ccc(OP(=O)(O)O)cc3)NC(C)=O)C(=O)N12 [SJ000580996-1]
- CHRF288-11 %inh (CHRF288-11): -2.344%
- CMK %inh (CMK): -6.908%
- CMS %inh (CMS): -2.301%
- M07e %inh (M07e): -1.329%
- ML-2 %inh (ML-2): -1.38%
- MOLM-13 %inh (MOLM-13): -0.4821%
- MV4-11 %inh (MV4-11): -4.998%
- U937 %inh (U937): 0.5533%

SMILES: COc1ccc(CCN=C2NC(=O)/C(=C/c3ccc4ncccc4c3)S2)cc1 [SJ000580998-1]
- CHRF288-11 %inh (CHRF288-11): -1.93%
- CMK %inh (CMK): -3.047%
- CMS %inh (CMS): -0.7764%
- M07e %inh (M07e): 1.057%
- ML-2 %inh (ML-2): -1.934%
- MOLM-13 %inh (MOLM-13): 2.923%
- MV4-11 %inh (MV4-11): -1.039%
- U937 %inh (U937): 0.5801%

SMILES: CNCC#Cc1c(F)ccc2c1/C(=C/c1[nH]ccc1OC)C(=O)N2 [SJ000580999-1]
- CHRF288-11 %inh (CHRF288-11): 56.9%
- CMK %inh (CMK): 104.6%
- CMS %inh (CMS): 90.97%
- M07e %inh (M07e): 73.32%
- ML-2 %inh (ML-2): 60.28%
- MOLM-13 %inh (MOLM-13): 105.9%
- MV4-11 %inh (MV4-11): 85.05%
- U937 %inh (U937): 85.1%

SMILES: O=C1NC(O)C(c2c[nH]c3ccccc23)=C1c1c[nH]c2ccccc12 (stereo not drawn) [SJ000581000-1]
- CHRF288-11 %inh (CHRF288-11): 3.04%
- CMK %inh (CMK): -1.548%
- CMS %inh (CMS): -2.539%
- M07e %inh (M07e): -1.63%
- ML-2 %inh (ML-2): -2.056%
- MOLM-13 %inh (MOLM-13): -0.2184%
- MV4-11 %inh (MV4-11): 0.3489%
- U937 %inh (U937): -0.5983%

SMILES: Cn1cc(C2=C(Oc3ccccc3)C(=O)NC2=O)c2ccccc21 [SJ000581001-1]
- CHRF288-11 %inh (CHRF288-11): -2.432%
- CMK %inh (CMK): -0.6422%
- CMS %inh (CMS): -3.067%
- M07e %inh (M07e): -0.2429%
- ML-2 %inh (ML-2): -1.623%
- MOLM-13 %inh (MOLM-13): -0.02006%
- MV4-11 %inh (MV4-11): -0.8354%
- U937 %inh (U937): 0.6544%

SMILES: Nc1c(C(=O)c2cccc(-c3cccnc3)c2)cnn1-c1ccc(F)cc1F [SJ000581002-1]
- CHRF288-11 %inh (CHRF288-11): 23.74%
- CMK %inh (CMK): 96.76%
- CMS %inh (CMS): 5.431%
- M07e %inh (M07e): 15.2%
- ML-2 %inh (ML-2): 15.07%
- MOLM-13 %inh (MOLM-13): 19.66%
- MV4-11 %inh (MV4-11): 0.1873%
- U937 %inh (U937): 25.61%

SMILES: COc1ccc(C2=C(c3cn(C)c4ccccc34)C(=O)NC2=O)cc1OC [SJ000581003-1]
- CHRF288-11 %inh (CHRF288-11): 6.661%
- CMK %inh (CMK): 38.95%
- CMS %inh (CMS): 5.298%
- M07e %inh (M07e): -0.2143%
- ML-2 %inh (ML-2): -1.913%
- MOLM-13 %inh (MOLM-13): 0.7842%
- MV4-11 %inh (MV4-11): 4.678%
- U937 %inh (U937): 6.689%
